From patent US20160114000A1 (Merck Sharp & Dohme, published 2016) come the findings set out here.

One assay addresses T1, human GCGR (Homo sapiens, UniProt P47871).
T1 construct: expressed in transfected cells; grown under Geneticin and Hygromycin selection
The assay can be described thus: cAMP protocol, cells expressing human GCGR. To be noted: for EC50: cAMP production, 20% human serum in assay buffer; for hGCGR/hGLP1R (hTone): ratio of EC50 at human GCGR to EC50 at human GLP1R. The class given is cell-based.

Another assay addresses T2, human GLP-1R (Homo sapiens, UniProt P43220).
T2 construct: expressed in transfected cells; grown under Geneticin and Hygromycin selection
The assay can be described thus: cAMP protocol, cells expressing human GLP-1R. To be noted: cAMP production, 20% human serum in assay buffer; read-out: GLPR1 EC50 (nM) human. Format: cell-based.

In assay [1] the test system is diet-induced obese (DIO) mice (strain C57Bl6/NTac). The assay can be described thus: Cumulative body weight change (grams) in DIO mice, Example 18. The class given is in vivo. The settings on record: day 9; for weight loss: 9 nmol/kg daily. How it is done:
Mice were administered a vehicle control or a dose of a peptide daily for nine days. […] The peptide of SEQ ID NO: 9 was administered at doses of 9 and 25 nmol/kg. Cumulative body weight change (grams) was measured each day of the study except on day 3. Results are shown in FIG. 1 and are expressed as mean±SEM.

Assay [2] relates to DIO mice (strain C57Bl6/NTac). As to the kind of experiment: Body weight change (%) relative to vehicle in DIO mice, second study, Example 19. To be noted: eight days. Format: in vivo. How it is done: In addition, the peptide of SEQ ID NO: 8 was administered at 15 nmol/kg, while the peptide of SEQ ID NOs: 10 and 11 were administered at 3 nmol/kg. Body weight was measured daily for eight days and body weight change is expressed as percent relative to vehicle (FIG. 2).

Assay [3] has as its system DIO mice (strain C57Bl6/NTac). As to the kind of experiment: Ambient glucose levels in DIO mice, Example 21. The class given is in vivo. To be noted: for changes in ambient glucose: 9 nmol/kg, after 9 days of dosing. How it is done:
In addition to cumulative body weight change, ambient glucose levels of the DIO mice (strain C57Bl6/NTac) were measured periodically throughout the study.

In assay [4] the test system is DIO mice (strain C57Bl6/NTac). The assay can be described thus: Cumulative food intake in DIO mice, Example 20. Format: in vivo. To be noted: 3 nmol/kg, after 8 days of dosing, vs vehicle.
Description: For the studies in Examples 18, 19, 20, and 21, diet induced obesity (DIO) mice (strain C57Bl6/NTac; 20 weeks on a high fat diet, about 47 g) were divided into groups of eight mice per group and the initial average body weight, food intake and basal glucose of each group were matched before peptide administration. Each group of mice was subcutaneously injected daily with a dose of Co-agonist Peptide or vehicle control for 7 to 10 days. The peptides tested in this study were Co-agonist Peptides 1, 2, 3, 4, 5, and 6 (SEQ ID NOs: 6, 7, 8, 9, 10, and 11, respectively) at the doses that varied from 3 nmol/kg to 25 nmol/kg. Body weight, food intake and basal glucose were measured periodically during treatment.

*1 amine or outer side, *2 acyl side, *3 side chain or, on linkers, in order; H or OH if unused. Where a SMILES comes first, the peptide text is derived from it. Side-chain parts run from the residue outwards. [ ]: non-standard residue; d: D form. The star is where a group is joined. Phe(4-CH2NH2) = NCc1ccc(C[C@H](N)C(=O)O)cc1; γGlu = O=C(O)[C@H](CCC(=O)[*:2])N[*:1]; Palmitoyl = CCCCCCCCCCCCCCCC(=O)*

T2 sequence (P43220 24-463): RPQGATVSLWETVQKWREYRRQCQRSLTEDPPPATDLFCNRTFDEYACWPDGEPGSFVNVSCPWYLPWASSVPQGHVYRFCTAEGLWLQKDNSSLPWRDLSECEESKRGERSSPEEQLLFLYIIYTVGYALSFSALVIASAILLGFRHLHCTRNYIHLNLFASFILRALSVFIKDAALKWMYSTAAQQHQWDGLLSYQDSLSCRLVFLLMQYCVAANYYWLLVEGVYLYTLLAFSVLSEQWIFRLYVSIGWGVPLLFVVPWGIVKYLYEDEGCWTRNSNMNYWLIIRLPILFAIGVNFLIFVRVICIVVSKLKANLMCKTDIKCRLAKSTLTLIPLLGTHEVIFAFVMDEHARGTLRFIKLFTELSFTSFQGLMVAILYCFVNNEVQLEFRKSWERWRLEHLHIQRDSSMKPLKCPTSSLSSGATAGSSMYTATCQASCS
T1 sequence (P47871 26-477): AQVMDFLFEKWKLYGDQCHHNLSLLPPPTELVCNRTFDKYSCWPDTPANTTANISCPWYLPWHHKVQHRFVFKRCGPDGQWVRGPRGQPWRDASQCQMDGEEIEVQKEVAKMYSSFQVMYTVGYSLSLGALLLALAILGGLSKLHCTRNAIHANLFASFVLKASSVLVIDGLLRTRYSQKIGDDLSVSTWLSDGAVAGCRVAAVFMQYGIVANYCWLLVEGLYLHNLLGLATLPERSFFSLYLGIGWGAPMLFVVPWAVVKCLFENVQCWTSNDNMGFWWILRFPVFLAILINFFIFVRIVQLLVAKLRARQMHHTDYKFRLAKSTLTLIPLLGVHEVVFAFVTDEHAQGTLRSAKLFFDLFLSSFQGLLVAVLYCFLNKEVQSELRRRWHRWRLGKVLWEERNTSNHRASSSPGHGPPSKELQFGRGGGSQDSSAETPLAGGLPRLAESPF
Protocol for human GCGR: The cAMP protocol was as follows.
(§1) Peptides were dissolved in 100% DMSO and serially diluted to generate 11 point titrations. The peptide solutions were then transferred into 384-well assay plates (150 nL/well). Assay ready frozen cells expressing human GLP-1R or human GCGR were suspended in growth media consisting of DMEM/F12 medium (GIBCO), 10% FBS (GIBCO), lx P/S (GIBCO), 800 μg/mL Geneticin (GIBCO), and 300 μg/mL Hygromycin (Invitrogen). Cells were then diluted in assay buffer consisting of PBS (GIBCO), 7.5% BSA (Perkin Elmer), 100 μM RO 20-1724 (Sigma), and 20% human serum (MP Biomedical). The cell suspensions (15 μL) were then added to the assay plates containing the peptide solutions (30,000 cells/well for human GCGR; 20,000 cells/well for GLP1R). The cells were incubated for 1 hour at room temperature in the dark. Production of cAMP was determined using HitHunter™ cAMPXS kits (DiscoverX). ED buffer (20 μL) was then added to each well and the plates were incubated for 1 hour at room temperature in the dark. Subsequently, EA buffer (20 μL) was added to each well, and the plates were incubated for 1-18 hours at room temperature in the dark. Luminescence was measured using an EnVision Multilabel plate reader (Perkin Elmer). EC50 values were calculated using ADA data analyzer software.
Protocol for human GLP-1R: The cAMP protocol was as follows.
as §1

With `CCCCCCCCCCCCCCCC(=O)N[C@@H](CCC(=O)NCCCC[C@H](NC(=O)[C@H](CC(=O)O)NC(=O)[C@H](CO)NC(=O)[C@@H](NC(=O)[C@H](Cc1ccccc1)NC(=O)[C@@H](NC(=O)CNC(=O)[C@H](CCC(N)=O)NC(=O)[C@@H](CO)NC(=O)[C@@H](N)Cc1c[nH]cn1)[C@@H](C)O)[C@@H](C)O)C(=O)N[C@@H](CO)C(=O)N[C@@H](CCCCN)C(=O)N[C@@H](Cc1ccc(O)cc1)C(=O)N[C@@H](CC(C)C)C(=O)N[C@@H](CC(=O)O)C(=O)N[C@H](C(=O)N[C@@H](CCCNC(=N)N)C(=O)N[C@@H](C)C(=O)N[C@@H](C)C(=O)N[C@@H](CCC(N)=O)C(=O)N[C@@H](CC(=O)O)C(=O)N[C@@H](Cc1ccccc1)C(=O)N[C@H](C(=O)N[C@@H](CCC(N)=O)C(=O)N[C@@H](Cc1c[nH]c2ccccc12)C(=O)N[C@@H](CC(C)C)C(=O)N[C@@H](CC(C)C)C(=O)N[C@@H](CC(=O)O)C(=O)N[C@H](C(N)=O)[C@@H](C)O)C(C)C)C(C)C)C(=O)O` [SEQ ID NO: 7] (H-H[dS]QGTFTSDK([γGlu-Palmitoyl])SKYLDVRAAQDFVQWLLDT-NH2; N-terminus assumed), at human GCGR, a half-maximal response (EC50) required 0.041 nM and the “hGCGR/hGLP1R (hTone)” value was 0.30. Further, the EC50 on human GLP-1R is 0.16 nM. In assay [1], this compound yielded a weight loss of about 3 grams. Also, in assay [2] (9 nmol/kg daily), the “weight loss, percent relative to vehicle” value is given as “approximately 5%”. Moreover, the “changes in ambient glucose” value in assay [3] is on record as “did not exhibit significant changes”.
For `CCCCCCCCCCCCCCCC(=O)N[C@@H](CCC(=O)N[C@@H](CCC(=O)NCCCC[C@H](NC(=O)[C@H](CC(=O)O)NC(=O)[C@H](CO)NC(=O)[C@@H](NC(=O)[C@H](Cc1ccccc1)NC(=O)[C@@H](NC(=O)CNC(=O)[C@@H](NC(=O)C(C)(C)NC(=O)[C@@H](N)Cc1c[nH]cn1)C(C)C)[C@@H](C)O)[C@@H](C)O)C(=O)N[C@@H](CO)C(=O)N[C@@H](CCCCN)C(=O)N[C@@H](Cc1ccc(O)cc1)C(=O)N[C@@H](CC(C)C)C(=O)N[C@@H](CC(=O)O)C(=O)NC(C)(C)C(=O)N[C@@H](CCCNC(=N)N)C(=O)N[C@@H](C)C(=O)N[C@@H](C)C(=O)N[C@@H](CCC(N)=O)C(=O)N[C@@H](CC(=O)O)C(=O)N[C@@H](Cc1ccccc1)C(=O)N[C@H](C(=O)N[C@@H](CCC(N)=O)C(=O)N[C@@H](Cc1c[nH]c2ccccc12)C(=O)N[C@@H](CC(C)C)C(=O)N[C@@H](CCCC)C(=O)N[C@@H](CC(=O)O)C(=O)N[C@H](C(N)=O)[C@@H](C)O)C(C)C)C(=O)O)C(=O)O` [SEQ ID NO: 9], on human GCGR, the EC50 is 0.89 nM and the “hGCGR/hGLP1R (hTone)” value was found to be 8.98. Besides, the EC50 at human GLP-1R was found to be 0.1 nM. Moreover, in assay [1], the weight loss is about 3 grams. In assay [1] (25 nmol/kg daily), this compound registered a body weight loss of 10.5 grams. Further, in assay [2] (9 nmol/kg daily), the “weight loss, percent relative to vehicle” value is listed as “approximately 5%”. Moreover, in assay [3], the “changes in ambient glucose” value is recorded as “did not exhibit significant changes”. Further, in assay [3] (25 nmol/kg, second day of dosing), the “decrease in ambient glucose compared to vehicle” value was -75 mg/dL.
As for `CCCCCCCCCCCCCCCC(=O)N[C@@H](CCC(=O)N[C@@H](CCC(=O)NCCCC[C@H](NC(=O)[C@H](CC(=O)O)NC(=O)[C@H](CO)NC(=O)[C@@H](NC(=O)[C@H](Cc1ccccc1)NC(=O)[C@@H](NC(=O)CNC(=O)[C@H](CCC(N)=O)NC(=O)[C@@H](CO)NC(=O)[C@@H](N)Cc1c[nH]cn1)[C@@H](C)O)[C@@H](C)O)C(=O)N[C@@H](CO)C(=O)N[C@@H](CCCCN)C(=O)N[C@@H](Cc1ccc(O)cc1)C(=O)N[C@@H](CC(C)C)C(=O)N[C@@H](CC(=O)O)C(=O)N[C@@H](C)C(=O)N[C@@H](CCCNC(=N)N)C(=O)N[C@@H](C)C(=O)N[C@@H](C)C(=O)N[C@@H](CCC(N)=O)C(=O)N[C@@H](CC(=O)O)C(=O)N[C@@H](Cc1ccccc1)C(=O)N[C@H](C(=O)N[C@@H](CCC(N)=O)C(=O)N[C@@H](Cc1c[nH]c2ccccc12)C(=O)N[C@@H](CC(C)C)C(=O)N[C@@H](CC(C)C)C(=O)N[C@@H](CC(=O)O)C(=O)N[C@H](C(N)=O)[C@@H](C)O)C(C)C)C(=O)O)C(=O)O` [SEQ ID NO: 10], the “hGCGR/hGLP1R (hTone)” value on human GCGR is given as 0.90. The weight loss result in assay [1] is “approximately 13 grams”. The “weight loss, percent relative to vehicle” value in assay [2] (3 nmol/kg daily) is listed as “approximately 17%”. In addition, the food intake result in assay [4] was “significant suppression of food intake”.
The matching figures for `CCCCCCCCCCCCCCCC(=O)N[C@@H](CCC(=O)N[C@@H](CCC(=O)NCCCC[C@H](NC(=O)[C@H](CC(=O)O)NC(=O)[C@H](CO)NC(=O)[C@@H](NC(=O)[C@H](Cc1ccccc1)NC(=O)[C@@H](NC(=O)CNC(=O)[C@H](CCC(N)=O)NC(=O)[C@@H](CO)NC(=O)[C@@H](N)Cc1c[nH]cn1)[C@@H](C)O)[C@@H](C)O)C(=O)N[C@@H](CO)C(=O)N[C@@H](CCCCN)C(=O)N[C@@H](Cc1ccc(O)cc1)C(=O)N[C@@H](CC(C)C)C(=O)N[C@@H](CC(=O)O)C(=O)N[C@@H](CCC(=O)O)C(=O)N[C@@H](CCCNC(=N)N)C(=O)N[C@@H](C)C(=O)N[C@@H](C)C(=O)N[C@@H](CCC(N)=O)C(=O)N[C@@H](CC(=O)O)C(=O)N[C@@H](Cc1ccccc1)C(=O)N[C@H](C(=O)N[C@@H](CCC(N)=O)C(=O)N[C@@H](Cc1c[nH]c2ccccc12)C(=O)N[C@@H](CC(C)C)C(=O)N[C@@H](CC(C)C)C(=O)N[C@@H](CC(=O)O)C(=O)N[C@H](C(N)=O)[C@@H](C)O)C(C)C)C(=O)O)C(=O)O` [SEQ ID NO: 11, reference compound]: 1.30, “approximately 13 grams”, “no weight loss efficacy” and “no change in food intake”.
Take `CCCCCCCCCCCCCCCC(=O)N[C@@H](CCC(=O)N[C@@H](CCC(=O)NCCCC[C@H](NC(=O)[C@H](CC(=O)O)NC(=O)[C@H](CO)NC(=O)[C@@H](NC(=O)[C@H](Cc1ccccc1)NC(=O)[C@@H](NC(=O)CNC(=O)[C@H](CCC(N)=O)NC(=O)[C@@H](CO)NC(=O)[C@@H](N)Cc1c[nH]cn1)[C@@H](C)O)[C@@H](C)O)C(=O)N[C@@H](CO)C(=O)N[C@@H](CCCCN)C(=O)N[C@@H](Cc1ccc(O)cc1)C(=O)N[C@@H](CC(C)C)C(=O)N[C@@H](CC(=O)O)C(=O)N[C@@H](CCC(=O)O)C(=O)N[C@@H](CCCNC(=N)N)C(=O)N[C@@H](C)C(=O)N[C@@H](C)C(=O)N[C@@H](CCC(N)=O)C(=O)N[C@@H](CC(=O)O)C(=O)N[C@@H](Cc1ccccc1)C(=O)N[C@H](C(=O)N[C@@H](CCC(N)=O)C(=O)N[C@@H](Cc1c[nH]c2ccccc12)C(=O)N[C@@H](CC(C)C)C(=O)N[C@@H](CCS(C)(=O)=O)C(=O)N[C@@H](CC(=O)O)C(=O)N[C@H](C(N)=O)[C@@H](C)O)C(C)C)C(=O)O)C(=O)O` [SEQ ID NO: 15]: on human GCGR, the concentration giving a half-maximal response (EC50) is 0.02 nM and the “hGCGR/hGLP1R (hTone)” value was found to be 1.10. Besides, on human GLP-1R, the EC50 was determined as 0.02 nM.
Regarding `CCCCCCCCCCCCCCCC(=O)N[C@@H](CCC(=O)N[C@@H](CCC(=O)NCc1ccc(C[C@H](NC(=O)[C@H](CC(=O)O)NC(=O)[C@H](CO)NC(=O)[C@@H](NC(=O)[C@H](Cc2ccccc2)NC(=O)[C@@H](NC(=O)CNC(=O)[C@H](CCC(N)=O)NC(=O)[C@@H](CO)NC(=O)[C@@H](N)Cc2c[nH]cn2)[C@@H](C)O)[C@@H](C)O)C(=O)N[C@@H](CO)C(=O)N[C@@H](CCCCN)C(=O)N[C@@H](Cc2ccc(O)cc2)C(=O)N[C@@H](CC(C)C)C(=O)N[C@@H](CC(=O)O)C(=O)N[C@@H](C)C(=O)N[C@@H](CCCNC(=N)N)C(=O)N[C@@H](C)C(=O)N[C@@H](C)C(=O)N[C@@H](CCC(N)=O)C(=O)N[C@@H](CC(=O)O)C(=O)N[C@@H](Cc2ccccc2)C(=O)N[C@H](C(=O)N[C@@H](CCC(N)=O)C(=O)N[C@@H](Cc2c[nH]c3ccccc23)C(=O)N[C@@H](CC(C)C)C(=O)N[C@@H](CC(C)C)C(=O)N[C@@H](CC(=O)O)C(=O)N[C@H](C(N)=O)[C@@H](C)O)C(C)C)cc1)C(=O)O)C(=O)O` [SEQ ID NO: 17, His^1-D-Ser^2-Gln-Gly-Thr-Phe-Thr-Ser-Asp-pAF^10(γGlu-γGlu-C16)-Ser-Lys-Tyr-Leu-Asp^15-Ala^16-Arg-Ala-Ala-Gln-Asp-Phe^22-Val^23-Gln-Trp^25-Leu-Leu-Asp-Thr-CONH2] (H-H[dS]QGTFTSD[Phe(4-CH2NH2)]([γGlu-γGlu-Palmitoyl])SKYLDARAAQDFVQWLLDT-NH2), the half-maximal effective concentration (EC50) on human GCGR and at human GLP-1R was 0.05 nM in each case. Moreover, the “hGCGR/hGLP1R (hTone)” value on human GCGR came to 0.98.
